Usually IC50 stands for the concentration needed to halve the response being measured.

For test [1], the target named is T1, GO (Mus musculus, UniProt Q9WU19).
T1 construct: endogenous in cells; host or cells: primary hepatocytes from male C56BL/6 (so in the source) mouse liver
T1 sequence (Q9WU19 1-370): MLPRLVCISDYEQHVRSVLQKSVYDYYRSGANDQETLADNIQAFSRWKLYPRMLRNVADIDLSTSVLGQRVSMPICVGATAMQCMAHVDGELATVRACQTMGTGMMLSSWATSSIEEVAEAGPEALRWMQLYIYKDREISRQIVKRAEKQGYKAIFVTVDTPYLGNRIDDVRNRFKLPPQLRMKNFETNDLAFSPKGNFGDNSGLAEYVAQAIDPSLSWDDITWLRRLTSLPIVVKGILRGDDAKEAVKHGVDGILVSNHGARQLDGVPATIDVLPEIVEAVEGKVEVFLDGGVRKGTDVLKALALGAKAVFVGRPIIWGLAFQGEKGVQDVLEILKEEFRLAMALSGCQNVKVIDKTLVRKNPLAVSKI
The experiment in a line: GO Cellular Assay: Primary Hepatocyte Assay (Assay 2). Type of test: cell-based. Particulars: primary mouse hepatocytes, 5 mM glycolate, oxalate at 72 hours; read-out: Range of IC50 values calculated from the cellular assays (Assay 2). As for the experimental part: Assay 2: GO Cellular Assay: Primary Hepatocyte Assay
Primary hepatocytes were used for a GO cellular assay as previously described (Martin-Higueras et al., Mol Ther. 24(4): 719-725 (2016)). Hepatocytes were isolated using an in situ collagenase perfusion method from male C56BL/6 mice liver. The freshly isolated hepatocytes were cultured in six well plates with Williams E medium supplemented with 5% fetal bovine serum, 2 mM 1-glutamine, 100 U/ml penicillin, 100 μg/ml streptomycin, 2.2 mUI/ml insulin and 0.3 μg/ml hydrocortisone. After 5 hours, the medium was changed to Williams E complete medium (Biochrom, Cambridge, UK) without serum and cells were treated with various concentrations of inhibitors in the presence of 5 mM glycolate. Culture medium was harvested at 72 hours after treatment, and the oxalate was quantified by using an oxalate oxidase assay kit (Trinity Biotech, Co Wicklow, Ireland) following manufacturer's instructions. The oxalate level was also confirmed by LC-MS method. The IC50 value for each measured compound was generated from sigmoidal dose-response (variable slope) curves with GraphPad Prism software (GraphPad Software, Inc., San Diego, Calif.) using the percent inhibition of GO activity relative to DMSO control.

Test [2] addresses T2, GO (Homo sapiens, UniProt Q9UJM8).
T2 sequence (Q9UJM8 1-370): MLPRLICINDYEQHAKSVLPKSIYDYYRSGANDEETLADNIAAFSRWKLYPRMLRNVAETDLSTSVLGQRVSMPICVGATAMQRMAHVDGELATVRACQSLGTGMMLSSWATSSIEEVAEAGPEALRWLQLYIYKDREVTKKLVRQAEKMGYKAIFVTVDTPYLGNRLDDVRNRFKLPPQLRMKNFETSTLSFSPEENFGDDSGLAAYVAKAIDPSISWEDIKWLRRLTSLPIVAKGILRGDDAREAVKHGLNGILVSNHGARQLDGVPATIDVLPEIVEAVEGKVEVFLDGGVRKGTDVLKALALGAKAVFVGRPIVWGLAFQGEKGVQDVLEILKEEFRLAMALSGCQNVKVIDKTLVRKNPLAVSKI
The experiment in a line: GO Cellular Assay: CHO-Agt Cells Assay (Assay 3). Conditions: 100 uM glycolic acid, glyoxylate by LC-MS at 2 hours, read-out: Range of IC50 values calculated from the cellular assays (Assay 3). More on the design: host or cells: CHO cells (A.T.C.C. CCl-61) and engineered CHO-Agt cells (from Fargue/Danpure). The test is classed as cell-based, Chinese hamster. As for the experimental part:
Assay 3: GO Cellular Assay: CHO-Agt Cells Assay
CHO cells (A.T.C.C. number CCl-61) and engineered CHO-Agt cells (provided by Dr. Sonia Fargue and Dr. Christopher J. Danpure, Biochem. J. (2006) 394, 409-416) were used as a screening cellular assay for primary compounds. The cells were seeded in 20,000 cell/well in 96 well plate and cultured at 37-C under O2/CO2 (19:1) in Ham's F12 medium (Invitrogen) supplemented with fetal calf serum (10%, v/v), L-glutamine (2 mM), penicillin (100 units/ml) and streptomycin (100 pug/ml). After overnight culture, the cells were treated with various concentrations of inhibitors in the presence of 100 uM glycolic acid in HEPES buffer, pH7.0 (Sigma-Aldrich, Cat #124737). Culture medium was harvested at 2 hours after treatment for glyoxylate analysis and cell viability was measured by Cell Titer-Glo (Fisher Scientific, Cat #. PR-G7570).
The glyoxylate was quantified using LC-MS method. An aliquot of 120 μL medium was removed from each well and protein precipitated by adding 240 μL IS (100 ng/ml 13C2-glyoxylic acid, Sigma-Aldrich, Cat #G755002). The mixture was vortex-mixed well and centrifuged at 3900 rpm for 15 min, 4° C. 100 μL supernatant was then mixed with 10 μL formic acid and 100 μL 400 μM DNPH (2,4-dinitrophenylhydrazine) (Shanghai Runjie Huaxue Shiji Ltd., Cat #A0000436) and the mixture was shaken for 30 minutes. A 3 μL mixture of reaction mixture was injected for LC-MS/MS analysis. (Behnam J T, Williams E L, Brink S, Rumsby G, Danpure C J., “Reconstruction of human hepatocyte glyoxylate metabolic pathways in stably transformed Chinese-hamster ovary cells”, Biochem J. 2006 Mar. 1; 394 (Pt 2):409-16.)

`CCN(CC)C(=O)OCOC(=O)c1[nH]nnc1O[C@H]1CC[C@H](c2ccc(OC(F)(F)F)cc2)CC1` [Compound 370, ((diethylcarbamoyl)oxy)methyl 4-(((trans)-4-(4-(trifluoromethoxy)phenyl)cyclohexyl)oxy)-1H-1,2,3-triazole-5-carboxylate]: the IC50 in test [1] was less than 1000 nM.
Still for that read-out and setting: then `CC(C)C(=O)OCCOC(=O)c1[nH]nnc1O[C@H]1CC[C@H](c2ccc(OC(F)(F)F)cc2)CC1` [Compound 371, 2-(isobutyryloxy)ethyl 4-(((trans)-4-(4-(trifluoromethoxy)phenyl)cyclohexyl)oxy)-1H-1,2,3-triazole-5-carboxylate], with less than 1000 nM.
As to `OCc1[nH]nnc1Oc1ccc(-c2ccc(OC(F)(F)F)cc2)cc1` [Compound 487, (4-((4′-(trifluoromethoxy)-[1,1′-biphenyl]-4-yl)oxy)-1H-1,2,3-triazol-5-yl)methanol], the IC50 in test [2] and in test [1] was 1000 to 5000 nM throughout.
With `OCc1[nH]nnc1O[C@H]1CC[C@H](c2ccc(OC(F)(F)F)cc2)CC1` [Compound 488, (4-(((trans)-4-(4-(trifluoromethoxy)phenyl)cyclohexyl)oxy)-1H-1,2,3-triazol-5-yl)methanol], the IC50 is 1000 to 5000 nM in test [2] and less than 1000 nM in test [1].
The corresponding values for `O=Cc1[nH]nnc1O[C@H]1CC[C@H](c2ccc(OC(F)(F)F)cc2)CC1` [Compound 490, 4-(((trans)-4-(4-(trifluoromethoxy)phenyl)cyclohexyl)oxy)-1H-1,2,3-triazole-5-carbaldehyde] are less than 1000 nM and less than 1000 nM.
On to `O=Cc1[nH]nnc1Oc1ccc(-c2ccc(OC(F)(F)F)cc2)cc1` [Compound 491, 4-((4′-(trifluoromethoxy)-[1,1′-biphenyl]-4-yl)oxy)-1H-1,2,3-triazole-5-carbaldehyde], for which the IC50 in test [2] and in test [1] was less than 1000 nM each time.
For the compound `OCc1[nH]nnc1Sc1ccc(-c2ccc(N3CCCCC3)cc2)cc1` [Compound 492, (4-((4′-(piperidin-1-yl)-[1,1′-biphenyl]-4-yl)thio)-1H-1,2,3-triazol-5-yl)methanol], the IC50 was greater than 10000 nM in test [2] and less than 1000 nM in test [1].
For `OCc1[nH]nnc1Oc1ccc(-c2ccc(Cl)c(Cl)c2)cc1` [Compound 493-1, (4-((3′,4′-dichloro-[1,1′-biphenyl]-4-yl)oxy)-1H-1,2,3-triazol-5-yl)methanol], the IC50 in test [2] was 1000 to 5000 nM; in test [1], less than 1000 nM.
The matching figures for `OCc1nn[nH]c1Oc1ccc(-c2ccc(N3CCCCC3)cc2)cc1` [Compound 496, (4-((4′-(piperidin-1-yl)-[1,1′-biphenyl]-4-yl)oxy)-1H-1,2,3-triazol-5-yl)methanol]: less than 1000 nM and less than 1000 nM.
As for `OCc1[nH]nnc1Sc1ccc(-c2ccc(OC(F)(F)F)cc2)cc1` [Compound 497, (4-((4′-(trifluoromethoxy)-[1,1′-biphenyl]-4-yl)thio)-1H-1,2,3-triazol-5-yl)methanol], the IC50 in test [2] was greater than 10000 nM.

(Values after patent US20230088214A1, “GLYCOLATE OXIDASE INHIBITORS FOR THE TREATMENT OF DISEASE” (BIOMARIN PHARMACEUTICAL INC., priority 2019, published 2023).)
